In US20240218022A1, “ANTI-VISTA MACROCYCLIC PEPTIDES AND COMPOSITIONS” (BRISTOL-MYERS SQUIBB COMPANY, priority 2022, published 2024):
Starred links: 1 amine or outer side, 2 acyl side, 3 side chain; linkers in the order of their positions; H or OH if unused. Positions of bridges follow the written chain, without caps; N, C: chain ends. Non-standard residues stand in square brackets, D forms with d. Residues, ends and D or L forms follow the SMILES beside them. ξ: configuration not given here. Phe(4-COOH) = N[C@@H](Cc1ccc(C(=O)O)cc1)C(=O)O; βAsp = O=C(O)[C@H](CC(=O)[*:2])N[*:1]; NMeThr(3ξ) = CN[C@H](C(=O)O)C(C)O; Cha = N[C@@H](CC1CCCCC1)C(=O)O; NMeL = CN[C@@H](CC(C)C)C(=O)O; Ahp(2) = CCCCC[C@H](N)C(=O)O; NMeNle = CCCC[C@H](NC)C(=O)O; Tle = CC(C)(C)[C@H](N)C(=O)O; NMeV = CN[C@H](C(=O)O)C(C)C; NMeS = CN[C@@H](CO)C(=O)O; NHexGly = CCCCCCNCC(=O)O; Orn = NCCC[C@H](N)C(=O)O; Aun = NCCCCCCCCCCC(=O)O; AEEA = NCCOCCOCC(=O)O

Target: T1, mouse VISTA (mVISTA) (Mus musculus, UniProt Q9D659)
T1 construct: expressed in transfected cells; host or cells: Human embryonic kidney 293T cells
T1 sequence (Q9D659 33-308): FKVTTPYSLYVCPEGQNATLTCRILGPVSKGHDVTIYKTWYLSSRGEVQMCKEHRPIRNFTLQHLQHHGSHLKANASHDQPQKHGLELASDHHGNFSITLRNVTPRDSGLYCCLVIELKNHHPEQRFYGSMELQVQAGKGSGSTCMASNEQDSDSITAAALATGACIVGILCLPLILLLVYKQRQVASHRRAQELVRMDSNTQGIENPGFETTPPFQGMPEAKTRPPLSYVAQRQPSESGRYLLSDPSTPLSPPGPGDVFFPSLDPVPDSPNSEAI
Assay: Cell-Based Binding High-Content Assay For mVISTA (HC CBA mVISTA)
Conditions: cell-based binding high-content assay, mVISTA; read-out: HC CBA miPr ISTA IC50
Method in brief: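 This high-content binding assay uses HEK293T cells expressing murine VISTA, measuring displacement of 2 nM biotinylated peptide by fluorescent streptavidin imaging. IC50 values come from four-parameter logistic fitting.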

Row | Compound | IC50 [nM]
1 | CCCCCCN1CC(=O)N[C@@H](Cc2ccc(O)cc2)C(=O)N[C@@H](CC(C)C)C(=O)N[C@@H](CC(N)=O)C(=O)N[C@@H](CCCNC(=N)N)C(=O)N(C)[C@@H](C(C)C)C(=O)N[C@@H](CCCCC)C(=O)N2CCC[C@H]2C(=O)N[C@@H](C(C)(C)C)C(=O)N[C@@H](CC(=O)O)C(=O)N[C@H](C(=O)N[C@@H](CC(=O)NCCOCCOCC(=O)N[C@@H](CC(=O)O)C(=O)NCCOCCOCC(=O)NCCCCCCCCCCC(=O)O)C(=O)O)CSCC(=O)N[C@@H](Cc2ccccc2)C(=O)N[C@@H](Cc2c[nH]c3ccccc23)C(=O)N[C@@H](CC(=O)O)C1=O [compound 2040] ({CH2CO}-FWD[NHexGly]YLNR[NMeV][Ahp(2)]P[Tle]DC[βAsp][AEEA]D[AEEA][Aun]-OH; thioether N-14) | 40.7
2 | CCCCCCN1CC(=O)N[C@@H](Cc2ccc(O)cc2)C(=O)N[C@@H](CC(C)C)C(=O)N[C@@H](CC(N)=O)C(=O)N[C@@H](CCCN)C(=O)N(C)[C@@H](CO)C(=O)N[C@@H](CCCCC)C(=O)N2CCC[C@H]2C(=O)N[C@@H](C(C)(C)C)C(=O)N[C@@H](CC(=O)O)C(=O)N[C@H](C(=O)N[C@@H](CC(=O)NCCOCCOCC(=O)N[C@@H](CC(=O)O)C(=O)NCCOCCOCC(=O)NCCCCCCCCCCC(=O)O)C(=O)O)CSCC(=O)N[C@@H](Cc2ccccc2)C(=O)N[C@@H](Cc2ccc(O)cc2)C(=O)N[C@@H](CC(=O)O)C1=O [compound 2044] ({CH2CO}-FYD[NHexGly]YLN[Orn][NMeS][Ahp(2)]P[Tle]DC[βAsp][AEEA]D[AEEA][Aun]-OH; thioether N-14) | 41.2
3 | CCCCCCN1CC(=O)N[C@@H](Cc2ccc(O)cc2)C(=O)N[C@@H](CCCCN)C(=O)N[C@@H](CC(N)=O)C(=O)N[C@@H](CCCNC(=N)N)C(=O)N(C)[C@@H](CCCC)C(=O)N[C@@H](CCCCC)C(=O)N2CCC[C@H]2C(=O)N[C@@H](C(C)(C)C)C(=O)N[C@@H](CO)C(=O)N[C@H](C(=O)N[C@@H](CC(=O)NCCOCCOCC(=O)N[C@@H](CC(=O)O)C(=O)NCCOCCOCC(=O)NCCCCCCCCCCC(=O)O)C(=O)O)CSCC(=O)N[C@@H](Cc2ccccc2)C(=O)N[C@@H](Cc2ccc(O)cc2)C(=O)N[C@@H](CC(=O)O)C1=O [compound 2046] ({CH2CO}-FYD[NHexGly]YKNR[NMeNle][Ahp(2)]P[Tle]SC[βAsp][AEEA]D[AEEA][Aun]-OH; thioether N-14) | 34.5
4 | CCCCCCN1CC(=O)N[C@@H](Cc2ccc(O)cc2)C(=O)N[C@@H](CC(C)C)C(=O)N[C@@H](CC(N)=O)C(=O)N[C@@H](CCCN)C(=O)N(C)[C@@H](CCCC)C(=O)N[C@@H](CCCCC)C(=O)N2CCC[C@H]2C(=O)N[C@@H](C(C)(C)C)C(=O)N[C@@H](CO)C(=O)N[C@H](C(=O)N[C@@H](CC(=O)NCCOCCOCC(=O)N[C@@H](CC(=O)O)C(=O)NCCOCCOCC(=O)NCCCCCCCCCCC(=O)O)C(=O)O)CSCC(=O)N[C@@H](Cc2ccc(C(=O)O)cc2)C(=O)N[C@@H](Cc2ccc(O)cc2)C(=O)N[C@@H](CC(=O)O)C1=O [compound 2047] ({CH2CO}-[Phe(4-COOH)]YD[NHexGly]YLN[Orn][NMeNle][Ahp(2)]P[Tle]SC[βAsp][AEEA]D[AEEA][Aun]-OH; thioether N-14) | 48.8
5 | CCCCCCN1CC(=O)N[C@@H](Cc2ccc(O)cc2)C(=O)N[C@@H](CC(C)C)C(=O)N[C@@H](CC(N)=O)C(=O)N[C@@H](CCCNC(=N)N)C(=O)N(C)[C@@H](CO)C(=O)N[C@@H](CCCCC)C(=O)N2CCC[C@H]2C(=O)N[C@@H](C(C)(C)C)C(=O)N[C@@H](CC(=O)O)C(=O)N[C@H](C(=O)N[C@@H](CC(=O)NCCOCCOCC(=O)N[C@@H](CC(=O)O)C(=O)NCCOCCOCC(=O)NCCCCCCCCCCC(=O)O)C(=O)O)CSCC(=O)N[C@@H](Cc2ccc(C(=O)O)cc2)C(=O)N[C@@H](Cc2ccc(O)cc2)C(=O)N[C@@H](CC(=O)O)C1=O [compound 2048] ({CH2CO}-[Phe(4-COOH)]YD[NHexGly]YLNR[NMeS][Ahp(2)]P[Tle]DC[βAsp][AEEA]D[AEEA][Aun]-OH; thioether N-14) | 35
6 | CCCCCCN1CC(=O)N[C@@H](Cc2ccc(O)cc2)C(=O)N[C@@H](CC(C)C)C(=O)N[C@@H](CC(N)=O)C(=O)N[C@@H](CCCNC(=N)N)C(=O)N(C)[C@@H](CC(C)C)C(=O)N[C@@H](CCCCC)C(=O)N2CCC[C@H]2C(=O)N[C@@H](C(C)(C)C)C(=O)N[C@@H](CO)C(=O)N[C@H](C(=O)N[C@@H](CC(=O)NCCOCCOCC(=O)N[C@@H](CC(=O)O)C(=O)NCCOCCOCC(=O)NCCCCCCCCCCC(=O)O)C(=O)O)CSCC(=O)N[C@@H](Cc2ccc(C(=O)O)cc2)C(=O)N[C@@H](Cc2ccc(O)cc2)C(=O)N[C@@H](CC(=O)O)C1=O [compound 2052] ({CH2CO}-[Phe(4-COOH)]YD[NHexGly]YLNR[NMeL][Ahp(2)]P[Tle]SC[βAsp][AEEA]D[AEEA][Aun]-OH; thioether N-14) | 31.7
7 | CCCCCCN1CC(=O)N[C@@H](Cc2ccc(O)cc2)C(=O)N[C@@H](CC2CCCCC2)C(=O)N[C@@H](CC(N)=O)C(=O)N[C@@H](CCCNC(=N)N)C(=O)N(C)[C@@H](CCCC)C(=O)N[C@@H](CCCCC)C(=O)N2CCC[C@H]2C(=O)N[C@@H](C(C)(C)C)C(=O)N[C@@H](CO)C(=O)N[C@H](C(=O)N[C@@H](CC(=O)NCCOCCOCC(=O)N[C@@H](CC(=O)O)C(=O)NCCOCCOCC(=O)NCCCCCCCCCCC(=O)O)C(=O)O)CSCC(=O)N[C@@H](Cc2ccccc2)C(=O)N[C@@H](Cc2ccc(O)cc2)C(=O)N[C@@H](CC(=O)O)C1=O [compound 2053] ({CH2CO}-FYD[NHexGly]Y[Cha]NR[NMeNle][Ahp(2)]P[Tle]SC[βAsp][AEEA]D[AEEA][Aun]-OH; thioether N-14) | 39.4

Next, values leading:

Row | IC50 [nM] | Compound
8 | 23.8 | CCCCCCN1CC(=O)N[C@@H](Cc2ccc(O)cc2)C(=O)N[C@@H](CC(C)C)C(=O)N[C@@H](CC(N)=O)C(=O)N[C@@H](CCCNC(=N)N)C(=O)N(C)[C@@H](C(C)C)C(=O)N[C@@H](CCCCC)C(=O)N2CCC[C@H]2C(=O)N[C@@H](C(C)(C)C)C(=O)N[C@@H](CO)C(=O)N[C@H](C(=O)N[C@@H](CC(=O)NCCOCCOCC(=O)N[C@@H](CC(=O)O)C(=O)NCCOCCOCC(=O)NCCCCCCCCCCC(=O)O)C(=O)O)CSCC(=O)N[C@@H](Cc2ccccc2)C(=O)N[C@@H](Cc2c[nH]c3ccccc23)C(=O)N[C@@H](CC(=O)O)C1=O [compound 2039] ({CH2CO}-FWD[NHexGly]YLNR[NMeV][Ahp(2)]P[Tle]SC[βAsp][AEEA]D[AEEA][Aun]-OH; thioether N-14)
9 | 29.7 | CCCCCCN1CC(=O)N[C@@H](Cc2ccc(O)cc2)C(=O)N[C@@H](CC(C)C)C(=O)N[C@@H](CC(N)=O)C(=O)N[C@@H](CCCNC(=N)N)C(=O)N(C)[C@@H](C(C)C)C(=O)N[C@@H](CCCCC)C(=O)N2CCC[C@H]2C(=O)N[C@@H](C(C)(C)C)C(=O)N[C@@H](CO)C(=O)N[C@H](C(=O)N[C@@H](CC(=O)NCCOCCOCC(=O)N[C@@H](CC(=O)O)C(=O)NCCOCCOCC(=O)NCCCCCCCCCCC(=O)O)C(=O)O)CSCC(=O)N[C@@H](Cc2ccccc2)C(=O)N[C@@H](Cc2ccc(O)cc2)C(=O)N[C@@H](CC(=O)O)C1=O [compound 2041] ({CH2CO}-FYD[NHexGly]YLNR[NMeV][Ahp(2)]P[Tle]SC[βAsp][AEEA]D[AEEA][Aun]-OH; thioether N-14)
10 | 30.8 | CCCCCCN1CC(=O)N[C@@H](Cc2ccc(O)cc2)C(=O)N[C@@H](CC(C)C)C(=O)N[C@@H](CC(N)=O)C(=O)N[C@@H](CCCNC(=N)N)C(=O)N(C)[C@@H](C(C)O)C(=O)N[C@@H](CCCCC)C(=O)N2CCC[C@H]2C(=O)N[C@@H](C(C)(C)C)C(=O)N[C@@H](CC(=O)O)C(=O)N[C@H](C(=O)N[C@@H](CC(=O)NCCOCCOCC(=O)N[C@@H](CC(=O)O)C(=O)NCCOCCOCC(=O)NCCCCCCCCCCC(=O)O)C(=O)O)CSCC(=O)N[C@@H](Cc2ccccc2)C(=O)N[C@@H](Cc2c[nH]c3ccccc23)C(=O)N[C@@H](CC(=O)O)C1=O (stereo partly drawn) [compound 2042] ({CH2CO}-FWD[NHexGly]YLNR[NMeThr(3ξ)][Ahp(2)]P[Tle]DC[βAsp][AEEA]D[AEEA][Aun]-OH; thioether N-14)
11 | 20.1 | CCCCCCN1CC(=O)N[C@@H](Cc2ccc(O)cc2)C(=O)N[C@@H](CC(C)C)C(=O)N[C@@H](CC(N)=O)C(=O)N[C@@H](CCCN)C(=O)N(C)[C@@H](CCCC)C(=O)N[C@@H](CCCCC)C(=O)N2CCC[C@H]2C(=O)N[C@@H](C(C)(C)C)C(=O)N[C@@H](CO)C(=O)N[C@H](C(=O)N[C@@H](CC(=O)NCCOCCOCC(=O)N[C@@H](CC(=O)O)C(=O)NCCOCCOCC(=O)NCCCCCCCCCCC(=O)O)C(=O)O)CSCC(=O)N[C@@H](Cc2ccccc2)C(=O)N[C@@H](Cc2ccc(O)cc2)C(=O)N[C@@H](CC(=O)O)C1=O [compound 2045] ({CH2CO}-FYD[NHexGly]YLN[Orn][NMeNle][Ahp(2)]P[Tle]SC[βAsp][AEEA]D[AEEA][Aun]-OH; thioether N-14)
12 | 24.1 | CCCCCCN1CC(=O)N[C@@H](Cc2ccc(O)cc2)C(=O)N[C@@H](CC(C)C)C(=O)N[C@@H](CC(N)=O)C(=O)N[C@@H](CCCNC(=N)N)C(=O)N(C)[C@@H](CCCC)C(=O)N[C@@H](CCCCC)C(=O)N2CCC[C@H]2C(=O)N[C@@H](C(C)(C)C)C(=O)N[C@@H](CO)C(=O)N[C@H](C(=O)N[C@@H](CC(=O)NCCOCCOCC(=O)N[C@@H](CC(=O)O)C(=O)NCCOCCOCC(=O)NCCCCCCCCCCC(=O)O)C(=O)O)CSCC(=O)N[C@@H](Cc2ccc(C(=O)O)cc2)C(=O)N[C@@H](Cc2ccc(O)cc2)C(=O)N[C@@H](CC(=O)O)C1=O [compound 2050] ({CH2CO}-[Phe(4-COOH)]YD[NHexGly]YLNR[NMeNle][Ahp(2)]P[Tle]SC[βAsp][AEEA]D[AEEA][Aun]-OH; thioether N-14)
